Experimental data from US20230374035A1, “RAS INHIBITORS” (Revolution Medicines, Inc., priority 2019, published 2023).

molecular target: NRAS Q61K (Homo sapiens, UniProt P01111+P62937, Q61K); experiment: Disruption of BRAF RBD interaction with Ras (FRET / MOA assay); format: biochemical; conditions: read-out: NRAS Q61K FRET data IC50
Description: Compound is present in plate wells as a 10-point 3-fold dilution series starting at a final concentration of 30 μM. […] Compounds that facilitate disruption of a Ras:RAF complex are identified as those eliciting a decrease in the TR-FRET ratio relative to DMSO control wells.
Note—The following protocol describes a procedure for monitoring disruption of K-Ras G12C (GMP-PNP) binding to BRAF^RBD by a compound of the invention. This protocol may also be executed substituting other Ras proteins or nucleotides.
The purpose of this biochemical assay was to measure the ability of test compounds to facilitate ternary complex formation between a nucleotide-loaded K-Ras isoform and Cyclophilin A; the resulting ternary complex disrupts binding to a BRAF^RBD construct, inhibiting K-Ras signaling through a RAF effector. Data is reported as IC50 values.
Compound was present in plate wells as a 10-point 3-fold dilution series starting at a final concentration of 30 μM. […] Compounds that facilitate disruption of a K-Ras:RAF complex were identified as those eliciting a decrease in the TR-FRET ratio relative to DMSO control wells.

NRAS Q61K, sequence (P01111 whole entry Q61K): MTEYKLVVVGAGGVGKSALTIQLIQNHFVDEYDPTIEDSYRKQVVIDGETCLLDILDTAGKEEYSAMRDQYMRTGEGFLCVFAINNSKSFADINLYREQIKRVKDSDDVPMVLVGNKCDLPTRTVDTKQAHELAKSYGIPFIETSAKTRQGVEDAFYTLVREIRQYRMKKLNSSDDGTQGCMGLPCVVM
NRAS Q61K, sequence (P62937 whole entry): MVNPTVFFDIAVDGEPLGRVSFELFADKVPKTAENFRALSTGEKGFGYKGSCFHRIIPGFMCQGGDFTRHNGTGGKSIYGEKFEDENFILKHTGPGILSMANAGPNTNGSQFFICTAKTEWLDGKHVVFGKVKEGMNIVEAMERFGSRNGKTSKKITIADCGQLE

SMILES	IC50 [nM]
CCn1c(-c2cccnc2[C@H](C)OC)c2c3cc(ccc31)-c1csc(n1)C[C@H](NC(=O)[C@H](C(C)C)N(C)C(=O)N1C[C@H](N)[C@@H](O)C1)C(=O)N1CCC[C@H](N1)C(=O)OCC(C)(C)C2 (atropisomer, axis not shown) [Compound A581]	10 to 100
CCn1c(-c2cccnc2[C@H](C)OC)c2c3cc(ccc31)-c1csc(n1)C[C@H](NC(=O)[C@H](C(C)C)N(C)C(=O)N1C3COCC1C3)C(=O)N1CCC[C@H](N1)C(=O)OCC(C)(C)C2 [Compound A540]	10 to 100
CCn1c(-c2cccnc2[C@H](C)OC)c2c3cc(ccc31)-c1csc(n1)C[C@H](NC(=O)[C@H](C(C)C)N(C)C(=O)N1CC(NS(C)(=O)=O)C1)C(=O)N1CCC[C@H](N1)C(=O)OCC(C)(C)C2 (atropisomer, axis not shown) [Compound A552]	10 to 100
CCn1c(-c2cccnc2[C@H](C)OC)c2c3cc(ccc31)-c1csc(n1)C[C@H](NC(=O)[C@H](C(C)C)N(C)C(=O)N1CC3(CC(N(C)C(C)C)C3)C1)C(=O)N1CCC[C@H](N1)C(=O)OCC(C)(C)C2 (atropisomer, axis not shown) [Compound A485]	10 to 100
CCn1c(-c2cccnc2[C@H](C)OC)c2c3cc(ccc31)-c1csc(n1)C[C@H](NC(=O)[C@H](C(C)C)N(C)C(=O)N1C[C@@H]3OCCN(C)[C@@H]3C1)C(=O)N1CCC[C@H](N1)C(=O)OCC(C)(C)C2 (atropisomer, axis not shown) [Compound A444]	10 to 100
CCn1c(-c2cccnc2[C@H](C)OC)c2c3cc(ccc31)-c1csc(n1)C[C@H](NC(=O)[C@H](C(C)C)N(C)C(=O)N1CC([C@H](C)N(C)C)C1)C(=O)N1CCC[C@H](N1)C(=O)OCC(C)(C)C2 (atropisomer, axis not shown) [Compound A538]	10 to 100
CCn1c(-c2cccnc2[C@H](C)OC)c2c3cc(ccc31)-c1csc(n1)C[C@H](NC(=O)[C@H](C(C)C)N(C)C(=O)N1CCC[C@H](N(C)C)CC1)C(=O)N1CCC[C@H](N1)C(=O)OCC(C)(C)C2 (atropisomer, axis not shown) [Compound A493]	10 to 100
CCn1c(-c2cccnc2[C@H](C)OC)c2c3cc(ccc31)-c1csc(n1)C[C@H](NC(=O)[C@H](C(C)C)N(C)C(=O)N1CCO[C@@H](c3ccccc3)C1)C(=O)N1CCC[C@H](N1)C(=O)OCC(C)(C)C2 (atropisomer, axis not shown) [Compound A600]	10 to 100
CCn1c(-c2cccnc2[C@H](C)OC)c2c3cc(ccc31)-c1csc(n1)C[C@H](NC(=O)[C@H](C(C)C)N(C)C(=O)N1CC3(CC(N(C)C4COC4)C3)C1)C(=O)N1CCC[C@H](N1)C(=O)OCC(C)(C)C2 (atropisomer, axis not shown) [Compound A511]	10 to 100
CCn1c(-c2cccnc2[C@H](C)OC)c2c3cc(ccc31)-c1csc(n1)C[C@H](NC(=O)[C@H](C(C)C)N(C)C(=O)N1CC(C#N)(N(C)C)C1)C(=O)N1CCC[C@H](N1)C(=O)OCC(C)(C)C2 [Compound A452]	10 to 100
CCn1c(-c2cccnc2[C@H](C)OC)c2c3cc(ccc31)-c1csc(n1)C[C@H](NC(=O)[C@H](C(C)C)N(C)C(=O)N1CC3(CC(NCCOC)C3)C1)C(=O)N1CCC[C@H](N1)C(=O)OCC(C)(C)C2 (atropisomer, axis not shown) [Compound A512]	10 to 100
CCn1c(-c2cccnc2[C@H](C)OC)c2c3cc(ccc31)-c1csc(n1)C[C@H](NC(=O)[C@H](C(C)C)N(C)C(=O)N1CCN(C(=O)[C@@H]3CCCN3C)CC1)C(=O)N1CCC[C@H](N1)C(=O)OCC(C)(C)C2 (atropisomer, axis not shown) [Compound A596]	10 to 100
CCn1c(-c2cccnc2[C@H](C)OC)c2c3cc(ccc31)-c1csc(n1)C[C@H](NC(=O)[C@H](C(C)C)N(C)C(=O)N1CC(COC)C1)C(=O)N1CCC[C@H](N1)C(=O)OCC(C)(C)C2 (atropisomer, axis not shown) [Compound A387]	10 to 100
CCn1c(-c2cccnc2[C@H](C)OC)c2c3cc(ccc31)-c1csc(n1)C[C@H](NC(=O)[C@H](C(C)C)N(C)C(=O)N1CCO[C@@H](CN(C)C)C1)C(=O)N1CCC[C@H](N1)C(=O)OCC(C)(C)C2 (atropisomer, axis not shown) [Compound A591]	10 to 100
CCn1c(-c2cccnc2[C@H](C)OC)c2c3cc(ccc31)-c1csc(n1)C[C@H](NC(=O)[C@H](C(C)C)N(C)C(=O)N1CCO[C@H](c3ccccc3)C1)C(=O)N1CCC[C@H](N1)C(=O)OCC(C)(C)C2 (atropisomer, axis not shown) [Compound A582]	10 to 100
CCn1c(-c2cccnc2[C@H](C)OC)c2c3cc(ccc31)-c1cc(O)cc(c1)C[C@H](NC(=O)[C@H](C(C)C)N(C)C(=O)C1CCC3(CCOC3)O1)C(=O)N1CCC[C@H](N1)C(=O)OCC(C)(C)C2 (stereo partly drawn) [Compound A409]	10 to 100

The next lines start with the values.

IC50 [nM]	SMILES
10 to 100	CCn1c(-c2cccnc2[C@H](C)OC)c2c3cc(ccc31)-c1csc(n1)C[C@H](NC(=O)[C@H](C(C)C)N(C)C(=O)N1C[C@@H]3OCCN(C)[C@H]3C1)C(=O)N1CCC[C@H](N1)C(=O)OCC(C)(C)C2 (atropisomer, axis not shown) [Compound A445]
10 to 100	CO[C@@H](C)c1ncccc1-c1c2c3cc(ccc3n1CC(F)F)-c1csc(n1)C[C@H](NC(=O)[C@H](C(C)C)N(C)C(=O)N1CC(N(C)C)C1)C(=O)N1CCC[C@H](N1)C(=O)OCC(C)(C)C2 (atropisomer, axis not shown) [Compound A316]
10 to 100	CCn1c(-c2cccnc2[C@H](C)OC)c2c3cc(ccc31)-c1csc(n1)C[C@H](NC(=O)[C@H](C(C)C)N(C)C(=O)N1CCC[C@H](N(C)C)C1)C(=O)N1CCC[C@H](N1)C(=O)OCC(C)(C)C2 (atropisomer, axis not shown) [Compound A569]
10 to 100	CCn1c(-c2cccnc2[C@H](C)OC)c2c3cc(ccc31)-c1csc(n1)C[C@H](NC(=O)[C@H](C(C)C)N(C)C(=O)N1CC(C(=O)O)C1)C(=O)N1CCC[C@H](N1)C(=O)OCC(C)(C)C2 (atropisomer, axis not shown) [Compound A344]
10 to 100	CCn1c(-c2cccnc2[C@H](C)OC)c2c3cc(ccc31)-c1csc(n1)C[C@H](NC(=O)[C@H](C(C)C)N(C)C(=O)N1CCN3C(=O)CN(C)C[C@H]3C1)C(=O)N1CCC[C@H](N1)C(=O)OCC(C)(C)C2 (atropisomer, axis not shown) [Compound A537]
10 to 100	CCn1c(-c2cccnc2[C@H](C)OC)c2c3cc(ccc31)-c1csc(n1)C[C@H](NC(=O)[C@H](C(C)C)N(C)C(=O)N1CC(CN(C)C)C1)C(=O)N1CCC[C@H](N1)C(=O)OCC(C)(C)C2 (atropisomer, axis not shown) [Compound A576]
10 to 100	CCn1c(-c2cccnc2[C@H](C)OC)c2c3cc(ccc31)-c1csc(n1)C[C@H](NC(=O)[C@H](C(C)C)N(C)C(=O)N1CC([C@H](C)COC)C1)C(=O)N1CCC[C@H](N1)C(=O)OCC(C)(C)C2 (atropisomer, axis not shown) [Compound A533]
10 to 100	CCn1c(-c2cccnc2[C@H](C)OC)c2c3cc(ccc31)-c1cc(O)cc(c1)C[C@H](NC(=O)[C@H](C(C)C)N(C)C(=O)[C@H]1CCC(=O)O1)C(=O)N1CCC[C@H](N1)C(=O)OCC(C)(C)C2 (atropisomer, axis not shown) [Compound A405]
